≈ marks a conversion by molar mass, not a printed value. Where two headings read alike, the source gives them in different places.

In one data set the test system is HCoV-229E. The experiment in a line: Anti-HCoV-229E activity in Huh7.5 cells (CPE method). The note with it: Human coronavirus 229E. The data set is classed as cell-based.
In data set [1] the test system is HCoV-OC43. The experiment in a line: Anti-HCoV-OC43 activity in HCT-8 cells (CPE method). The data set is classed as cell-based.
The subject of data set [2] is HCoV-OC43. The data set can be described thus: Anti-HCoV-OC43 activity in MRC-5 cells (CPE method). The data set is classed as cell-based. The note with it: for IC50: Betacoronavirus 1, OC43, MRC5, 0 h.
In a further data set the test system is HCT-8 cells. The note with it: human.
In the next data set the test system is MRC-5 cells. The note with it: human.
The subject of data set [3] is coronaviruses (HCoV-229E and HCoV-OC43). The data set can be described thus: CPE experiment on coronaviruses, single components compared with carrimycin. The data set is classed as cell-based. The note with it: above CPE method.
The test system of data set [4] is Middle East Respiratory Syndrome Coronavirus (MERS-CoV). The data set is classed as cell-based. The note with it: in vitro.
Data set [5] deals with severe acute respiratory syndrome coronavirus SARS-CoV. The data set is classed as cell-based. The note with it: in vitro.
The subject of another data set is human coronavirus HKU1. The data set is classed as cell-based.
Data set [6] deals with human coronavirus NL63(HCoV-NL63). The data set is classed as cell-based.
Another data set relates to PI3K/Akt/mTOR pathway. It counts as cell-based.
The subject of another data set is 2019-nCoV. The experiment in a line: Anti-2019-nCoV activity in Vero E6 cells (CPE). The note with it: in words.
[7] abbreviates: 0h: administration at the same time of infection, read-out: IC50, First batch.
[8] abbreviates: 0h: administration at the same time of infection, read-out: IC50, Second batch.
Setting [9] is: 2h: administration 2 hours after infection, read-out: IC50, First batch.
Where [10] appears, read: 2h: administration 2 hours after infection, read-out: IC50, Second batch.

Take `CC[C@H]1OC(=O)[C@H](C)[C@@H](O[C@H]2C[C@@](C)(OC)[C@@H](O)[C@H](C)O2)[C@H](C)[C@@H](O[C@@H]2O[C@H](C)C[C@H](N(C)C)[C@H]2O)[C@](C)(O)C[C@@H](C)CN(C)[C@H](C)[C@@H](O)[C@]1(C)O` [Azithromycin]: the IC50 in the data set on HCoV-229E (setting [7]) is 14.3 µg/mL (≈ 19.1 µM); in the data set on HCoV-229E (setting [8]), 19.2 µg/mL (≈ 25.7 µM); with HCoV-229E (setting [9]), 14.3 µg/mL (≈ 19.1 µM); in the data set on HCoV-229E (setting [10]), 4.77 µg/mL (≈ 6.37 µM); in the data set on HCoV-OC43 [1] (Betacoronavirus 1, OC43, HCT-8 cells, 0h administration, read-out: IC50) it was more than 100 µg/mL; in the data set on HCoV-OC43 [2], more than 11.1 µg/mL. For the same molecule, the “inhibitory effect on the HCoV-OC43” value in the data set on HCoV-OC43 [1] (HCT-8 cells, 0h administration, in words) is listed as “no inhibitory effect”; in the data set with HCoV-OC43 [2] (MRC-5 cells, 0h administration, in words), “no inhibitory effect”. Moreover, the results for the TC50 with HCT-8 cells and in the data set on MRC-5 cells were more than 100 µg/mL and 48.07 µg/mL (≈ 64.2 µM), respectively.

Consider `CO[C@@H]1[C@@H](O[C@@H]2O[C@H](C)[C@@H](O[C@H]3C[C@@](C)(O)[C@@H](OC(=O)CC(C)C)[C@H](C)O3)[C@H](N(C)C)[C@H]2O)[C@@H](CC=O)C[C@@H](C)[C@@H](O[C@H]2CC[C@H](N(C)C)[C@@H](C)O2)/C=C/C=C/C[C@@H](C)OC(=O)C[C@H]1O` [Isovalerylspiramycin I, isovalerylspiramycin I], for which, in data set [3], the “inhibition activity compared with carrimycin” value is reported as “higher than the inhibition activity of carrimycin”. For the same molecule, the “inhibition activity compared with ribavirin or azithromycin” value (in data set [4]; in data set [5]; in the data set on human coronavirus HKU1; in data set [6]) was “higher than the inhibition activity of ribavirin or azithromycin” each time. Besides, the “anti-inflammatory and immunomodulatory effects on PI3K/Akt/mTOR pathway” value in the data set with PI3K/Akt/mTOR pathway is reported as “inhibit the PI3K/Akt/mTOR pathway”. The “anti-2109-nCoV activity in vitro” value in the data set on 2019-nCoV is on record as “anti-2109-nCoV activities in vitro”.

With `NC(=O)c1ncn([C@@H]2O[C@H](CO)[C@@H](O)[C@H]2O)n1` [RBV, Ribavirin], the IC50 stood at 6.42 µg/mL (≈ 26.3 µM) with HCoV-229E (setting [7]); 7.06 ± 0.91 µg/mL (≈ 28.9 µM) in the data set with HCoV-229E (0h: administration at the same time of infection, read-out: IC50, Mean value); 7.7 µg/mL (≈ 31.5 µM) in the data set on HCoV-229E (setting [8]); 7.7 µg/mL (≈ 31.5 µM) in the data set with HCoV-229E (setting [9]); 4.77 µg/mL (≈ 19.5 µM) with HCoV-229E (setting [10]); 11.1 µg/mL (≈ 45.5 µM) in the data set with HCoV-OC43 [1] (Betacoronavirus 1, OC43, HCT-8, 0 h). In the data set on HCoV-OC43 [2], this molecule returned an IC50 of 63.8 µg/mL (≈ 261 µM). Further, the TC50 with HCT-8 cells and in the data set with MRC-5 cells was more than 100 µg/mL in each case.

Regarding `CCC(=O)O[C@@H]1CC(=O)O[C@H](C)C/C=C/C=C/[C@H](O[C@H]2CC[C@H](N(C)C)[C@@H](C)O2)[C@H](C)C[C@H](CC=O)[C@H](O[C@@H]2O[C@H](C)[C@@H](O[C@H]3C[C@@](C)(O)[C@@H](OC(=O)CC(C)C)[C@H](C)O3)[C@H](N(C)C)[C@H]2O)[C@H]1OC` [isovalerylspiramycin III], the “inhibition activity compared with carrimycin” value in data set [3] was “close to the inhibition activities of carrimycin”. For the same molecule, the “inhibition activity compared with ribavirin or azithromycin” value (in [4]; in data set [5]; with human coronavirus HKU1; in data set [6]) was “higher than the inhibition activity of ribavirin or azithromycin” each time. Besides, in the data set with PI3K/Akt/mTOR pathway, the “anti-inflammatory and immunomodulatory effects on PI3K/Akt/mTOR pathway” value is on record as “inhibit the PI3K/Akt/mTOR pathway”. Also, the “anti-2109-nCoV activity in vitro” value with 2019-nCoV is “anti-2109-nCoV activities in vitro”.

Consider isovalerylspiramycin II, for which the “inhibition activity compared with carrimycin” value in data set [3] is listed as “close to the inhibition activities of carrimycin”. Moreover, the “inhibition activity compared with ribavirin or azithromycin” value (in [4]; in data set [5]; in the data set on human coronavirus HKU1; in data set [6]) was “higher than the inhibition activity of ribavirin or azithromycin” throughout. Besides, in the data set with PI3K/Akt/mTOR pathway, the “anti-inflammatory and immunomodulatory effects on PI3K/Akt/mTOR pathway” value is given as “inhibit the PI3K/Akt/mTOR pathway”. In addition, the “anti-2109-nCoV activity in vitro” value with 2019-nCoV is recorded as “anti-2109-nCoV activities in vitro”.
